Reference: patent publication US7981893B2, “Heteroaryl compounds, compositions thereof, and methods of treatment therewith” (Signal Pharmaceuticals, LLC, priority 2006, dated 2011)

Columns and labels:
Type in all cases: biochemical
PKCθ = target: T1, PKCθ (Homo sapiens, UniProt Q04759); test: PKCθ IMAP Assay; settings: IMAP fluorescence polarization screening assay, 35 μM ATP
T1 construct: purchased Invitrogen
Outline: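 IMAP fluorescence polarization with 0.5 nM PKCθ, 100 nM FAM-AKRRRLSSLRA, 35 μM ATP, 2.5% DMSO, pH 7.6 HEPES with phosphatidyl serine/diacylglycerol. Compound pre-incubated with enzyme 45 min; reaction 60 min, then binding beads ≥30 min before FP read.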

Syk = target: T2, Syk (Homo sapiens, UniProt P43405); test: Syk HTRF Assay; settings: HTRF screening assay
T2 construct: purchased Carna Biosciences 08-176
Procedure: 5 μl/well DMSO is added to Column 2 Wells A-O and 29.5 μl to well P2 of Greiner 384-well polypropylene plate. 20 μl/well DMSO is added to Columns 1 and 3-12.
25 mM compound solutions are prepared by the addition of 25 μl of 30 mM compound to Column 2 and 0.5 μl 30 mM reference control to well P2.
Serial dilution is then performed by the following steps: (i) compounds in Column 2 are mixed by pipetting 20 μl up and down 6×; (ii) 10 μl/well compounds in DMSO are transferred from one column to the next column for Columns 2-11; (iii) wells are mixed by pipetting 20 μl up and down 6×; (iv) tips washed 3×25 μl DMSO, 2×25 μl next DMSO.
The following buffers are prepared:
Dilution Buffer: 50 mM HEPES pH 7.6; 1 mM DTT; 10 mM MgCl2; 0.01% Triton X100; 0.01% BSA; 0.1 mM EDTA.
Enzyme Mix in Dilution Buffer: 8.621 ng/ml Syk (Carna Biosciences 08-176).
Start Mix in Dilution Buffer: 87.5 μM ATP; 80 nM Substrate Peptide (American Peptide Company 332722).
14.5 μl/well Enzyme Mix or Dilution Buffer (Background Controls) is added to Costar 384-well black plates.
Compound addition and mixture is performed by the following steps: (i) 0.5 μl/well DMSO/compounds in DMSO transferred from Greiner 384-well polypropylene plate to left half of assay plate containing 14.5 μl/well Enzyme Mix and Dilution Buffer; (ii) Mix by pipetting 10 μl up and down 4×; (iii) tips are washed 4×10 μl in DMSO, 2×20 μl in other DMSO; (iv) steps i-iii are repeated with transfer to right half of assay plate; (v) steps i-iv are repeated with each compound/assay plate until all plates are completed.
10 μl/well Start Mix is added and incubated at room temperature on shaker for 2 minutes (1 hour total reaction time).
Stop Solution in Dilution Buffer: 120 mM EDTA
Antibody Mix in Dilution Buffer: 4.86 μg/ml DyLight 647 Streptavidin (Pierce 21824); 1 μg/ml Lance Eu-Anti-Phosphotyrosine (PerkinElmer AD0069).
5 μl/well[…] is added and incubated at room temperature on shaker for 2 minutes.
[…] Antibody Mix is added and Incubated at room temperature on shaker for 2 minutes (4 hours to overnight total time).
Plates are read at 665 nm and 620 nm emission on Analyst GT protocol HTRF_SP_A or EnVision protocol Steve's TR-FRET.

mTOR = target: T3, mTOR (Homo sapiens, UniProt P42345); test: mTOR HTR-FRET Assay; settings: HTR-FRET screening assay, GST-p70S6 kinase fragment substrate
T3 construct: Dilute TOR fraction 1:14 in “Simple TOR Buffer”
Procedure: The following is an example of an assay that can be used to determine the mTOR inhibitory activity of a test compound. Reagents are prepared as follows:
“Simple TOR buffer” (used to dilute high glycerol TOR fraction): 10 mM Tris pH 7.4, 100 mM NaCl, 0.1% Tween-20, 1 mM DTT (from 1M stock frozen at −20° C. just prior to use). For convenience a large quantity of “Simple TOR buffer” w/o DTT can be stored at 4° C. It can be brought to room temperature and DTT added just prior to dilution of TOR fraction.
5×KB/5×Mn/5×ATP solution (used to dilute substrate GST-p70S6kin 81 a.a. just prior to use) (40 ml screen quantity shown):
Enzyme solution: Dilute TOR fraction 1:14 in “Simple TOR Buffer”. For current lot that is 640 μg/ml TOR fraction diluted 14× to yield 45.7 μg/ml TOR in buffer (i.e. 7.85 ml TOR pooled fraction+102.1 ml Simple TOR buffer=110 ml 14× diluted TOR fraction). Each Enzyme Lot must be QC'd prior to assay.
Substrate solution: This may be prepared just prior to assay if preferred. Dilute 5.3 mg/ml GST-p70S6kinase fragment stock to 3.5 μg/ml (97 nM) working stock in 5×KB/5×Mn/5×ATP solution (i.e. 26.41 μL (5.3 mg/ml) GST-p70S6+40 ml 5×KB/5×Mn/5×ATP=40 ml 3.5 μg/ml (97 nM)).
Assay Buffer (for dilution of Antibodies used in Antibody Detection Reagent):
Antibody Detection Reagent (this reagent should be made just prior to addition to Assay Plates):
Using PlateTrak program (Screen) or Matrix Pipettor (SAR), 19.5 μL of diluted TOR fraction is added to assay plate in all test, reference or positive control wells. 19.5 μL of “Simple TOR buffer” is added to all negative control wells. If treating multiple plates with the same compounds, can increase volume of enzyme to multiples of 19.5 μL in a tall 384 well polypropylene plate.
Using EP3, 0.5 μl of test, reference or control DMSO is added to each well with mixing. Plates are incubated for 30 minutes at room temperature.
Using PlateTrak program (Screen) or Matrix Pipettor (SAR) 5 μL of 5×KB/5×Mn/5×ATP/5× substrate solution is added to each well of the assay plate to start the reaction. The solutions are mixed well and incubated for 2 hours at room temperature.
Using PlateTrak program (Screen) or Matrix Pipettor (SAR) 5 μL of 60 mM EDTA is added to stop the reaction. The solutions are mixed well and allowed to sit for 15-20 minutes before the next step.
Using PlateTrak program (Screen) or Matrix Pipettor (SAR) 10 μl of Antibody Detection Reagent is added. The solutions are mixes well and incubated for 5 hours to O/N to allow antibodies to form complexes with phosphorylated substrate.
Plates are read on AnalystHT using protocol Multi-Method protocol.

T1 sequence (Q04759 whole entry): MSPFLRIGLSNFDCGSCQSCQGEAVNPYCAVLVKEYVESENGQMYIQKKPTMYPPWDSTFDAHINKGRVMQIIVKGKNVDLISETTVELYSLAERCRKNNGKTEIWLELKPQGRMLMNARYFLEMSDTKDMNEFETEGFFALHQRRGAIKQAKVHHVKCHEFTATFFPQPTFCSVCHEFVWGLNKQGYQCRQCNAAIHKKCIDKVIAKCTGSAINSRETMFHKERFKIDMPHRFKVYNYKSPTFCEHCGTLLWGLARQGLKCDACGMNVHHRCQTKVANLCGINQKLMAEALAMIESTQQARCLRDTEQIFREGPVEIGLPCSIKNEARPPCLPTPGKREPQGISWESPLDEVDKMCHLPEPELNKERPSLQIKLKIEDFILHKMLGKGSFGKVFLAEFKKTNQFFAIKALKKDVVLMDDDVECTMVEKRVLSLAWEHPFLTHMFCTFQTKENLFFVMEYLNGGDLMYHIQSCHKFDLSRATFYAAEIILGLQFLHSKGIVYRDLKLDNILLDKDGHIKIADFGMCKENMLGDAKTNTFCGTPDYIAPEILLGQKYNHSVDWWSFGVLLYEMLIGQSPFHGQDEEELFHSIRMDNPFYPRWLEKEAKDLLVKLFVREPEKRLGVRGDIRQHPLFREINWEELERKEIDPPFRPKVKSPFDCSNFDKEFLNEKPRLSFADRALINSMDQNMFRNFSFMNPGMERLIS

Compound	IC50 (PKCθ) [µM]	IC50 (Syk) [µM]	IC50 (mTOR) [µM]
CC(C)[C@@H](CO)n1c(=O)[nH]c2ncc(-c3ccccc3)nc21 [Compound 1, (S)-1-(1-hydroxy-3-methylbutan-2-yl)-6-phenyl-1H-imidazo[4,5-b]pyrazin-2(3H)-one]	> 30	> 30	–
COc1ccc(C(C)C)cc1-c1cnc2[nH]c(=O)n([C@@H](C)C(C)C)c2n1 [Compound 30, (S)-6-(5-isopropyl-2-methoxyphenyl)-1-(3-methylbutan-2-yl)-1H-imidazo[4,5-b]pyrazin-2(3H)-one]	20.1 to 30	0.1 to 5	–
CC(C)[C@@H](CO)n1c(=O)[nH]c2ncc(-c3cccc4ncccc34)nc21 [Compound 11, (S)-1-(1-hydroxy-3-methylbutan-2-yl)-6-(quinolin-5-yl)-1H-imidazo[4,5-b]pyrazin-2(3H)-one]	20.1 to 30	> 30	> 30

More lines, now with the values ahead:

IC50 (PKCθ) [µM]	IC50 (Syk) [µM]	IC50 (mTOR) [µM]	Compound
0.1 to 5	0.1 to 5	–	COc1ccc(C(C)C)cc1-c1cnc2[nH]c(=O)n([C@H](C)C(C)C)c2n1 [Compound 28, (R)-6-(5-isopropyl-2-methoxyphenyl)-1-(3-methylbutan-2-yl)-1H-imidazo[4,5-b]pyrazin-2(3H)-one]
10.1 to 20	5.1 to 10	–	COc1ccc(C(C)C)cc1-c1cnc2[nH]c(=O)n([C@@H](CO)C(C)C)c2n1 [Compound 13, (R)-1-(1-hydroxy-3-methylbutan-2-yl)-6-(5-isopropyl-2-methoxyphenyl)-1H-imidazo[4,5-b]pyrazin-2(3H)-one]
0.1 to 5	0.1 to 5	–	COc1ccc(C(C)C)cc1-c1cnc2[nH]c(=O)n([C@H](CO)C(C)C)c2n1 [Compound 8, (S)-1-(1-hydroxy-3-methylbutan-2-yl)-6-(5-isopropyl-2-methoxyphenyl)-1H-imidazo[4,5-b]pyrazin-2(3H)-one]
